This note sets out measurements from patent publication US7534897B2 (Shionogi & Co., Ltd., priority 2002, dated 2009).

In data set [1] the target is T1, human CRTH2-transfected K562 cells (Homo sapiens, UniProt Q9Y5Y4).
T1 construct: expressed in transfected cells; host or cells: K562 cells
T1 sequence (Q9Y5Y4 1-395): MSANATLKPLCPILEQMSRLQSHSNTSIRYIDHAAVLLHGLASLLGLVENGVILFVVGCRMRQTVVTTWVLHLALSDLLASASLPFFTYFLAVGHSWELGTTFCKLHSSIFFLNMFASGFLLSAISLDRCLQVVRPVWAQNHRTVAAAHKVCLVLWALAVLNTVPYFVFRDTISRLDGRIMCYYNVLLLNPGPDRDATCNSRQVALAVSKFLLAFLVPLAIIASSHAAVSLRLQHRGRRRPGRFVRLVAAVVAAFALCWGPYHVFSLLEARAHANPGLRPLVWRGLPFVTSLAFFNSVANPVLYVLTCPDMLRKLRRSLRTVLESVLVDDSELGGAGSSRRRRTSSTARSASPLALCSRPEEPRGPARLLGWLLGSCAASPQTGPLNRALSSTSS
The data set is described as follows: Antagonistic activity to CRTH2: calcium mobilization assay induced by PGD2. It counts as cell-based. As to conditions: compound at 1 μM, percent inhibition of PGD2-induced calcium mobilization. Here is the method: Experiment 2 Evaluation of Antagonistic Activity to CRTH2
To evaluate the antagonistic activity of compounds against CRTH2, calcium mobilization assay induced by PGD2 was performed using CRTH2 transfectants.
The human CRTH2-transfected K562 cells were suspended at 2×10^6 cells/ml in assay buffer (10 mM HEPES buffer, pH 7.4, 0.1% Bovine serum albumin), and were incubated with Fura-2 AM (2 μM) for 60 min at room temperature. After washing cells were resuspended again with assay buffer, incubated at 37° C., and then treated with various concentrations of compounds for 2 min. The emitted fluorescence was measured on a calcium analyzer (CAF-110) after addition of PGD2.

Data set [2] has as its target T2, CRTH2 (Homo sapiens, UniProt Q9Y5Y4).
T2 construct: expressed in transfected cells; host or cells: K562 cells (membrane fraction)
T2 sequence (Q9Y5Y4 1-395): T1 sequence (Q9Y5Y4 1-395)
The data set is described as follows: Binding activity to CRTH2 ([3H]PGD2 binding assay). As to conditions: membrane fraction of CRTH2-transfected K562 cells, read-out: CRTH2 inhibitory activity IC50. As for the experimental part: Experiment 1 Binding Activity to CRTH2
The membrane fraction prepared with CRTH2-transfected K562 cells was used for a binding assay. To a binding-reaction solution (50 mM Tris/HCl, pH 7.4, 10 mM MgCl2) the membrane fraction (0.06 mg) and 3 nM [^3H]PGD2 (172 Ci/mmol) were added, and the mixture was reacted at room temperature for 60 min. After the reaction, the mixture was filtered through a glass fiber filter paper and washed several times with cooled physiological saline, then the radioactivity retained on the filter paper was measured. The specific-binding ratio was calculated by subtracting the non-specific binding ratio which is the radioactivity similarly measured in the presence of 10 μM PGD2 from the total binding.

SMILES strings stand for the structures.

For the molecule `CN(c1ccc2c(c1)c1c(n2CC(=O)O)CCCC1)S(=O)(=O)c1ccc(F)cc1` [Ih-2], the “antagonistic activity to CRTH2 (% INH)” value in data set [1] was found to be 91 % INH.
Usually IC50 stands for the concentration that gives 50% inhibition. A word on the melting point: it is the temperature of the solid-liquid transition. As for `CN(C1CCc2c(c3ccccc3n2CC(=O)O)C1)S(=O)(=O)c1ccc(Cc2ccccc2)s1` (centres unmarked) [Ib-31], the melting point lay in the range of 138 to 140 °C. In addition, in data set [2], the half-maximal inhibitory concentration (IC50) came to 59 nM. Moreover, the “antagonistic activity to CRTH2 (% INH)” value in data set [1] is recorded as 96 % INH.
The like results for `O=C(O)Cn1cc(C2CCCN(S(=O)(=O)c3ccc(F)cc3)C2)c2ccccc21` (centres unmarked) [Ic-6] were, in that order, 189 to 194 °C (dec.), 4.5 nM and 100 % INH.
On to `O=C(O)Cn1cc(CCNS(=O)(=O)c2ccc(F)cc2)c2cc(F)ccc21` [Ia-36], for which, in data set [2], the IC50 was determined as 15 nM. Besides, in data set [1], the “antagonistic activity to CRTH2 (% INH)” value came out at 89 % INH.
The like results for `O=C(O)Cn1cc(CCN(Cc2ccccc2)S(=O)(=O)c2ccc(F)cc2)c2ccccc21` [Ia-51] were, in that order, 20 nM and 91 % INH.
